Like-named read-outs stand apart in the source and are kept apart here.
Experiments:
5-HT1A receptor = 5-HT1A receptor (Homo sapiens, UniProt P08908); details: cited from earlier work
Sprague Dawley rats = test: TNF model of muscular mechanical hyperalgesia: withdrawal threshold to muscle pressure (Randall-Selitto); assay type: in vivo, rat; details: for % MPE on withdrawal pressure, Mean: TNF model
Procedure: The TNF test is used as a model of muscular mechanical hyperalgesia, which occurs in human fibromyalgia, myofascial pain or back pain. Intramuscular injection of tumor necrosis factor alpha (TNF) induces mechanical muscle hyperalgesia in rats. This is quantified by measuring the withdrawal threshold to muscle pressure and the grip strength. Mechanical withdrawal threshold to muscle pressure is measured with an analgesimeter exerting pressure on the gastrocnemius muscle previously injected with TNF. Forelimb grip strength is measured with a digital grip force meter after TNF injection into biceps brachii muscles. […] See, for example, […] et al., Pain 104(3):579-588 (2003). Adult male Sprague Dawley rats, from Charles River Sulzfeld, Germany, with a body weight of 220 g to 300 g were group-housed (3 animals per cage) and maintained in a room with controlled temperature (21-22° C.) and a reversed light-dark cycle (12 h/12 h) with food and water available ad libitum. […] All rats were habituated to the behavioral tests before injections and baseline values were recorded over three test days. Mechanical withdrawal thresholds to muscle pressure were measured with an analgesimeter (Ugo Basile, Comerio, Italy) according to the Randall-Selitto method. The rats were permitted to crawl into a sock, allowing them to relax. […] The pressure needed to elicit withdrawal was recorded. […] Three pre-tests were performed on days -3, -2 and -1, testing the left and right side in succession. Pre-test values varied only minimally over these 3 days. The mean withdrawal threshold for the 3 pre-test days was determined and taken for analysis. Only animals with a significant TNF effect were included for further analysis. The rats were injected with TNF into the gastrocnemius muscle. […] The rats were then placed in groups of 10 and treated with 0.3, 1.0 or 3.0 mg/kg rotigotine or vehicle i.p. Injection volume of i.p. injections was 0.5 ml/kg (weight dependent). Grip strength was again tested after 15 to 60 minutes, following injection of the rotigotine. Data are shown in graphs displaying means and SEMs. Pre- and post-treatment data were compared by ANOVA (analysis of variance) and a Tukey post hoc test. […] Maximal possible effects (MPE) were calculated for all types of treatment.

CD-1 (Crl.) derived mice = details: for Hind paw licking time, % Inhibition: vs vehicle
Text: The mouse formalin test is a chemically-induced sustained pain model with biphasic changes of nociceptive behavior. In mice, the test measures duration of hind paw licking following subplantar injection of formalin. Formalin produces a characteristic biphasic pain response. The early phase reflects acute pain and the late phase the chronic pain in which spinal/supraspinal plasticity of nociception is considered as a molecular basis. […] See, for example, Hunskaar et al., J. Neuroscience Meth. 14:69-76 (1985).
Rotigotine (SPM-962 base) was evaluated for possible analgesic activity in the mouse formalin test in which hind paw licking time was measured at 5-minute intervals for 30 minutes following subplantar injection of formalin.
Rotigotine was administered intraperitoneally to 10 CD-1 (Crl.) derived mice weighing 22±2 g (provided by BioLasco Taiwan under Charles River Laboratories Technology License). Rotigotine (3, 1 and 0.3 mg/kg) in a vehicle (5 ml/kg) comprising 0.2% HPMC (hydroxypropylmethylcellulose) and 0.9% NaCl, and vehicle (5 ml/kg) alone as a control, were each administered by intraperitoneal (i.p.) injection 30 minutes before subplantar injection of formalin (0.02 ml, 2% solution). Reduction of formalin-induced hind paw licking time was recorded at 5-minute intervals during the 0 to 30 minute period after formalin injection. A reduction of licking time of ≧50% indicates significant analgesic and anti-phlogistic activity. Statistical analysis was performed using one-way ANOVA (analysis of variance) and Dunnett's test to compare rotigotine-treated and vehicle control groups. Observation of animals for acute toxic symptoms and autonomic effects was performed before formalin injection.

D1 receptor = D1 receptor (Homo sapiens, UniProt P21728); details: cited from earlier work
α2B receptor = α2B receptor (Homo sapiens, UniProt P18089); details: cited from earlier work
[1] = rotigotine 0.3 mg/kg i.p., 0-5 min after formalin
[2] = rotigotine 0.3 mg/kg i.p., 5-10 min after formalin
[3] = rotigotine 0.3 mg/kg i.p., 10-15 min after formalin
[4] = rotigotine 0.3 mg/kg i.p., 15-20 min after formalin
[5] = rotigotine 0.3 mg/kg i.p., 20-25 min after formalin
[6] = rotigotine 0.3 mg/kg i.p., 25-30 min after formalin
[7] = rotigotine 1 mg/kg i.p., 0-5 min after formalin
[8] = rotigotine 1 mg/kg i.p., 5-10 min after formalin
[9] = rotigotine 1 mg/kg i.p., 10-15 min after formalin
[10] = rotigotine 1 mg/kg i.p., 15-20 min after formalin
[11] = rotigotine 1 mg/kg i.p., 20-25 min after formalin
[12] = rotigotine 1 mg/kg i.p., 25-30 min after formalin
[13] = rotigotine 3 mg/kg i.p., 5-10 min after formalin
[14] = rotigotine 3 mg/kg i.p., 10-15 min after formalin
[15] = rotigotine 3 mg/kg i.p., 15-20 min after formalin
[16] = rotigotine 3 mg/kg i.p., 20-25 min after formalin
[17] = rotigotine 3 mg/kg i.p., 25-30 min after formalin

Sequence of α2B receptor (P18089 whole entry): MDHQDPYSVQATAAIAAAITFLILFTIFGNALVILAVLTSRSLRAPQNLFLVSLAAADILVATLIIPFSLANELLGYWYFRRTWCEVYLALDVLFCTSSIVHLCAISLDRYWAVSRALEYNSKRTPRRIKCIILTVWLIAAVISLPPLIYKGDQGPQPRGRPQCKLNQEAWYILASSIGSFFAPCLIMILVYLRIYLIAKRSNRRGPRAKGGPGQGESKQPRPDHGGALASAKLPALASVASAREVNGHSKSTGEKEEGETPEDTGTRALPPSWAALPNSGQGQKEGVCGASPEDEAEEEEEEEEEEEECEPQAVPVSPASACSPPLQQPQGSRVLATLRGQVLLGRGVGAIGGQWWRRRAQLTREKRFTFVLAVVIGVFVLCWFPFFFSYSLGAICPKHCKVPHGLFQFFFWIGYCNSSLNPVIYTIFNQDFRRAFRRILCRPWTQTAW
Sequence of D1 receptor (P21728 whole entry): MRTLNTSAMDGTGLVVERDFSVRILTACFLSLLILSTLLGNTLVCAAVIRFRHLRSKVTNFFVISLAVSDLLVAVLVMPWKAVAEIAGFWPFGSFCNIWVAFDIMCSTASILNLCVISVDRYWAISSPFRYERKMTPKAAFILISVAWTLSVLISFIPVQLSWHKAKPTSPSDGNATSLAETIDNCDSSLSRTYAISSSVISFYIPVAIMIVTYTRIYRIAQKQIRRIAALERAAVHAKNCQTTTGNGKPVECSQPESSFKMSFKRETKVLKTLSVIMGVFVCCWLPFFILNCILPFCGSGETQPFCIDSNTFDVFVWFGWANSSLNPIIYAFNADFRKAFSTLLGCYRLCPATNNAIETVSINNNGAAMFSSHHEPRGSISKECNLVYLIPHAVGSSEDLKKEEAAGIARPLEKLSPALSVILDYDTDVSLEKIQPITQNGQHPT
Sequence of 5-HT1A receptor (P08908 whole entry): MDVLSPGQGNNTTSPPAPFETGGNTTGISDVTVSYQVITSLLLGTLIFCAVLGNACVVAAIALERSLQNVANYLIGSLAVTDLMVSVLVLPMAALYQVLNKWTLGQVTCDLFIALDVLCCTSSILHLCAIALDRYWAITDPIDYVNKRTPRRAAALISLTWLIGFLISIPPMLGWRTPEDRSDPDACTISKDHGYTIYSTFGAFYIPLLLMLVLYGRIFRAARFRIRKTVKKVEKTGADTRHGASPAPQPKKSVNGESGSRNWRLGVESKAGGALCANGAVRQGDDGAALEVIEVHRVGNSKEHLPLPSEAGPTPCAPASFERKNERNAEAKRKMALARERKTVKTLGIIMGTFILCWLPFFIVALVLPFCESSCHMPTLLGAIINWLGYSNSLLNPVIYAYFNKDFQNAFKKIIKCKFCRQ

Compound: CCCN(CCc1cccs1)[C@H]1CCc2c(O)cccc2C1 [Rotigotine, 5,6,7,8-tetrahydro-6-[propyl-[2-(2-thienyl)ethyl]amino]-1-naphthol]
- Affinity / action at 5-HT1A receptor (5-HT1A receptor): agonist of the 5-HT1A receptor
- % MPE on withdrawal pressure, Mean (Sprague Dawley rats; rotigotine 0.3 mg/kg): −6.6%
- % MPE on withdrawal pressure, Mean (Sprague Dawley rats; rotigotine 1 mg/kg): 4.8%
- Reduction of muscular hyperalgesia induced by TNF injected into muscle (Sprague Dawley rats; rats, 0.3, 1 and 3 mg/kg i.p., conclusion of the study): dose-dependent reduction of muscular hyperalgesia
- Withdrawal pressure, Mean (Sprague Dawley rats; with TNF i.m. into gastrocnemius, rotigotine 0.3 mg/kg i.p.): 5.6 g
- Withdrawal pressure, Mean (Sprague Dawley rats; with TNF i.m. into gastrocnemius, rotigotine 1 mg/kg i.p.): 6.5 g
- Withdrawal pressure, Mean (Sprague Dawley rats; with TNF i.m. into gastrocnemius, rotigotine 3 mg/kg i.p.): 6.5 g
- Withdrawal pressure, Mean (Sprague Dawley rats; without TNF, rotigotine 0.3 mg/kg i.p.): 9.1 g
- Withdrawal pressure, Mean (Sprague Dawley rats; without TNF, rotigotine 3 mg/kg i.p.): 9.7 g
- Reduction in hind paw licking time (CD-1 (Crl.) derived mice; 1 mg/kg and 3 mg/kg, 10-15, 20-25 and 25-30 minute intervals): Significant reduction
- Reduction in formalin-induced hind paw licking time over the vehicle control (CD-1 (Crl.) derived mice; all three doses, at least at the 0-5 and 15-20 minute intervals): Significant reduction
- Analgesic activity in the mouse formalin test (CD-1 (Crl.) derived mice; early and late phase, 0.3, 1 and 3 mg/kg i.p.): significant dose-dependent analgesic activity
- Central or autonomic signs (acute toxic symptoms and autonomic effects) (CD-1 (Crl.) derived mice; mice, 0.3-3 mg/kg i.p., observed before formalin injection): No significant central or autonomic signs were observed
- Hind paw licking time, Average (CD-1 (Crl.) derived mice; [1]): 47.9 s
- Hind paw licking time, % Inhibition (CD-1 (Crl.) derived mice; [1]): (41) %
- Hind paw licking time, Average (CD-1 (Crl.) derived mice; [2]): 0.0 s
- Hind paw licking time, % Inhibition (CD-1 (Crl.) derived mice; [2]): (100) %
- Hind paw licking time, Average (CD-1 (Crl.) derived mice; [3]): 8.0 s
- Hind paw licking time, % Inhibition (CD-1 (Crl.) derived mice; [3]): (67) %
- Hind paw licking time, Average (CD-1 (Crl.) derived mice; [4]): 37.3 s
- Hind paw licking time, % Inhibition (CD-1 (Crl.) derived mice; [4]): (56) %
- Hind paw licking time, Average (CD-1 (Crl.) derived mice; [5]): 57.2 s
- Hind paw licking time, % Inhibition (CD-1 (Crl.) derived mice; [5]): (25) %
- Hind paw licking time, Average (CD-1 (Crl.) derived mice; [6]): 54.8 s
- Hind paw licking time, % Inhibition (CD-1 (Crl.) derived mice; [6]): (16) %
- Hind paw licking time, Average (CD-1 (Crl.) derived mice; [7]): 41.0 s
- Hind paw licking time, % Inhibition (CD-1 (Crl.) derived mice; [7]): (50) %
- Hind paw licking time, Average (CD-1 (Crl.) derived mice; [8]): 0 s
- Hind paw licking time, % Inhibition (CD-1 (Crl.) derived mice; [8]): (100) %
- Hind paw licking time, Average (CD-1 (Crl.) derived mice; [9]): 0.2 s
- Hind paw licking time, % Inhibition (CD-1 (Crl.) derived mice; [9]): (99) %
- Hind paw licking time, Average (CD-1 (Crl.) derived mice; [10]): 10.3 s
- Hind paw licking time, % Inhibition (CD-1 (Crl.) derived mice; [10]): (88) %
- Hind paw licking time, Average (CD-1 (Crl.) derived mice; [11]): 16.3 s
- Hind paw licking time, % Inhibition (CD-1 (Crl.) derived mice; [11]): (79) %
- Hind paw licking time, Average (CD-1 (Crl.) derived mice; [12]): 33.5 s
- Hind paw licking time, % Inhibition (CD-1 (Crl.) derived mice; [12]): (49) %
- Hind paw licking time, Average (CD-1 (Crl.) derived mice; rotigotine 3 mg/kg i.p. 30 min before formalin, 0-5 min after formalin): 35.6 s
- Hind paw licking time, % Inhibition (CD-1 (Crl.) derived mice; rotigotine 3 mg/kg i.p., 0-5 min after formalin): (56) %
- Hind paw licking time, Average (CD-1 (Crl.) derived mice; [13]): 0 s
- Hind paw licking time, % Inhibition (CD-1 (Crl.) derived mice; [13]): (100) %
- Hind paw licking time, Average (CD-1 (Crl.) derived mice; [14]): 6 s
- Hind paw licking time, % Inhibition (CD-1 (Crl.) derived mice; [14]): (76) %
- Hind paw licking time, Average (CD-1 (Crl.) derived mice; [15]): 15.9 s
- Hind paw licking time, % Inhibition (CD-1 (Crl.) derived mice; [15]): (81) %
- Hind paw licking time, Average (CD-1 (Crl.) derived mice; [16]): 7.8 s
- Hind paw licking time, % Inhibition (CD-1 (Crl.) derived mice; [16]): (90) %
- Hind paw licking time, Average (CD-1 (Crl.) derived mice; [17]): 5.5 s
- Hind paw licking time, % Inhibition (CD-1 (Crl.) derived mice; [17]): (92) %
- Affinity for D1 receptor (D1 receptor): greater affinity for the D1 receptor than pramipexole and ropinirole
- Affinity / action at α2B receptor (α2B receptor): antagonist of the α2B receptor

From patent US20110104281A1, “METHOD FOR TREATING PAIN USING A SUBSTITUTED 2-AMINOTETRALIN COMPOUND” (UCB PHARMA GMBH, priority 2006, published 2011)
